# Measured values published in paper PMC8067766 (International Journal of Molecular Sciences, 2021).
# Where a SMILES comes first, the peptide text is derived from it.
# Columns and labels:
# [1] = Thioflavin T fluorescence assay; type: physicochemical; conditions: 1.0 mg/mL in PBS pH 7.4, 37 °C, orbital shaking; ThT excitation 420 nm, emission 482 nm
# Procedure: All peptides were dissolved in Eppendorf Low Retention Tubes in 1.0 mL of PBS pH 7.4. The concentration of the solutions of peptides was 1.0 mg/mL. The peptides were incubated at 37 °C with constant orbital shaking. Aliquots for the evaluation of the fibrillization process were taken before incubation and after 1, 2, 3, 6, 14, and 21 days or only after 7 days, depending on the experiments.
# Ten microliters of peptide solution incubated under fibrillization conditions (see Fibril preparation) were mixed with 10 µL of 1.5 mM ThT in water and 90 µL of PBS pH 7.4. The fluorescence was measured on a Tecan Infinite 200Pro (Tecan Group Ltd., Männedorf, Switzerland) spectrofluorometer in 96-well plates (Costar Black®), with excitation wavelength set at 420 nm and emission in the range of 455 to 600 nm.
# [2] = Circular dichroism over incubation; type: physicochemical; conditions: 1.0 mg/mL in PBS pH 7.4, 37 °C with agitation, up to 14 days; centrifuged clear solution, far-UV 195-250 nm
# Procedure: Circular dichroism spectra were recorded on a Jasco J-815 spectropolarimeter (Jasco, Victoria, BC, Canada). Far-UV spectra (195–250 nm) were registered for all peptides dissolved in PBS pH 7.4 at a concentration of 1.0 mg/mL and incubated at 37 °C with agitation. Spectra were recorded before and after 1,2, 3, 7, 10 and 14 days of incubation. All spectra were corrected for the buffer signal. The CD spectra were recorded three times, using a 0.2 mm cell.
# [3] = Peptide stability in human plasma (TCA assay); type: in vitro ADME; conditions: human plasma (EDTA), 37 °C, 300 rpm, TCA 3% precipitation, RP-HPLC UV 223 nm, peak area relative to 0 min, at least triplicates, read-out: peptide loss in human plasma relative to the initial concentration
# Procedure: Peptide stability tests were performed according to a TCA stability assay based on the method used by Nguyen et al.. Peptides were dissolved in water, mixed with human plasma* to a final concentration of 1.0 mg/mL, and incubated at 37 °C with agitation (300 rpm, Thermomixer, Eppendorf AG, Hamburg, Germany). After 0, 1, 2, 3, 6 and 24 h, 80 μL of the solution was taken and mixed with 15% TCA to obtain a final concentration of 3% (v/v). The samples were incubated in ice for 10 min and centrifuged for 10 min (12,000 rpm, Microfuge 16, Beckman Coulter, Brea, CA, USA). Supernatants were analyzed by RP-HPLC on column using a linear gradient of acetonitrile (5–100% over 15 min) with detection at 223 nm. Peptides were quantified by their peak areas relative to the initial peak areas (0 min). All stability tests were performed at least in triplicates. As control samples peptides dissolved only in water under the same conditions were used. To additionally assess the changes in the incubated samples (peptide degradation) mass spectrometry analysis was used. LC-MS experiments were performed using ESI-IT-TOF (Shimadzu, Kyoto, Japan).
# * Blood was collected from healthy anonymous donors and EDTA was then used as an anticoagulant. The procedure was approved by the Independent Bioethics Commission for Research of the Medical University of Gdańsk (NKBBN/387/2014).
# 46BR.1N fibroblasts = test: XTT proliferation assay, fibroblasts; type: cell-based, human; conditions: for increase in proliferation by fibrils compared to control (XTT): fibrillated form, 10 µL of fibrils (50 µg/mL), 48 h, three independent experiments; for stimulation of proliferation (XTT), in words / inhibition of proliferation (XTT), in words: non-fibrillated peptide, 48 and 72 h; for inhibition of proliferation (XTT), in words: up to 25 µg/mL
# Procedure: (§1) Immortalized human HaCaT [69, 70] keratinocytes (DKFZ, Heidelberg, Germany) and the human dermal fibroblast cell line 46BR.1N (ECACC, Sigma Aldrich, St. Louis, MO, USA) were used in the study. Cells were routinely grown in culture flasks (growth surface area 25 cm^2) in Dulbecco’s modified Eagle medium (DMEM, Sigma Aldrich, St. Louis, MO, USA), with 4500 mg/L of glucose, 584 mg/L of L-glutamine, sodium pyruvate, and sodium bicarbonate, supplemented with 10% FBS and 100 units/mL of penicillin and 100 μg/mL of streptomycin (Sigma Aldrich, St. Louis, MO, USA), under a humidified atmosphere with 5% CO2 at 37 °C. Medium was changed every 2–3 days.
# (§2) Lactate dehydrogenase (LDH) activity in cell culture supernatants (Takara, Japan, cat. No. MK401) was measured to determine the cytotoxicity of the tested compounds, and the XTT assay was used to evaluate their effect on cell proliferation. Both tests were performed as previously described according to manufacturers’ instructions. Briefly, cells were seeded into 96-well plates, at a density of 5000 cells per well, in DMEM supplemented with 10% FBS. After 24 h the medium was exchanged for serum-free DMEM containing appropriate concentrations of the tested compounds. Supernatants for LDH analysis were collected after 48 h of incubation. The XTT assay was performed after 48 and 72 h of incubation.
# (§3) For the analysis of the effect of the peptide fibrils on skin cells, the experiment was performed as described, but the cells were stimulated with 10 µL of the fibrils (50 µg/mL) and incubated for 48 h, when the LDH and XTT assay were then performed.
# HaCaT keratinocytes = test: XTT proliferation assay, keratinocytes; type: cell-based, human; conditions: for increase in proliferation by fibrils compared to control (XTT): fibrillated form, 10 µL of fibrils (50 µg/mL), 48 h, not statistically significant; for stimulation of proliferation (XTT), in words / inhibition of proliferation (XTT), in words: non-fibrillated peptide, 48 and 72 h; for inhibition of proliferation (XTT), in words: up to 25 µg/mL
# Procedure: as §1, §2, §3
secondary structure by CD [2],"metabolised at 24 h, 1 mg/mL [3] [%]",SMILES,time course of ThT fluorescence increase (fibrillization) [1],increase in proliferation by fibrils compared to control (XTT) (46BR.1N fibroblasts),"stimulation of proliferation (XTT), in words (46BR.1N fibroblasts)","inhibition of proliferation (XTT), in words (46BR.1N fibroblasts)",increase in proliferation by fibrils compared to control (XTT) (HaCaT keratinocytes),"stimulation of proliferation (XTT), in words (HaCaT keratinocytes)","inhibition of proliferation (XTT), in words (HaCaT keratinocytes)"
disordered structure,20,CC[C@H](C)[C@H](NC(=O)CNC(=O)[C@H](C)NC(=O)[C@H](CCC(N)=O)NC(=O)CNC(=O)CNC(=O)CNC(=O)[C@@H](NC(=O)[C@@H]1CCCN1C(=O)[C@H](C)NC(=O)[C@H](C)NC(=O)CNC(=O)CNC(=O)CNC(=O)[C@H](CCCCN)NC(=O)[C@H](Cc1c[nH]cn1)NC(=O)CNC(C)=O)C(C)C)C(=O)N[C@H](C(=O)N[C@H](C(N)=O)C(C)C)C(C)C [FC-GHK] (Ac-GHKGGGAAPVGGGQAGIVV-NH2),effective sample fibrilization during the first two days of incubation,about 10%,stimulated proliferation of both tested cell lines at concentrations of 0.01–10 µg/L,slight inhibition of the proliferation of skin cells after 72 h stimulation,about 10%,stimulated proliferation of both tested cell lines at concentrations of 0.01–10 µg/L,slight inhibition of the proliferation of skin cells after 72 h stimulation
disordered structure,20,CC[C@H](C)[C@H](NC(=O)CNC(=O)[C@H](C)NC(=O)[C@H](CCC(N)=O)NC(=O)CNC(=O)CNC(=O)CNC(=O)[C@@H](NC(=O)[C@@H]1CCCN1C(=O)[C@H](C)NC(=O)[C@H](C)NC(=O)CNC(=O)CNC(=O)CNC(=O)[C@H](CCCCN)NC(=O)[C@H](Cc1c[nH]cn1)NC(=O)CNC(=O)[C@H](CCCCN)NC(C)=O)C(C)C)C(=O)N[C@H](C(=O)N[C@H](C(N)=O)C(C)C)C(C)C [FC-KGHK] (Ac-KGHKGGGAAPVGGGQAGIVV-NH2),required at least three days of incubation,~20%,strongest stimulation was observed for 46BR.1N fibroblasts in concentrations of 0.1–10 µg/mL after 72 h of incubation,did not inhibit the proliferation of skin cells,about 10%,most potent stimulation was observed at concentrations of 1.0 µg/mL after 48 h and 0.1 µg/mL after 72 h incubation,did not inhibit the proliferation of skin cells
